Assay [1] addresses Histamine H1 receptor (Homo sapiens) (UniProt P35367). The experiment in a line: Displacement of [3H]pyrilamine from human H1 receptor expressed in monkey COS7 cells at 10 uM. As to conditions: COS-7. The format is cell-based. (In general: Loss of bound radioactivity is the signal in a displacement assay; it reports binding, not function.)
The target in assay [2] is Histamine H4 receptor (Homo sapiens) (UniProt Q9H3N8). The experiment in a line: Displacement of [3H]histamine from human H4 receptor expressed in monkey COS7 cells at 1 uM. The format is cell-based. The conditions noted are these: COS-7.
Assay [3] deals with T1, Histamine H3 receptor (Homo sapiens, UniProt Q9Y5N1). As to the kind of experiment: Displacement of [3H]N-alpha-methylhistamine from human cloned histamine H3 receptor expressed in monkey COS7 cells. The format is cell-based, COS-7.
Assay [4] deals with Histamine H4 receptor (Homo sapiens) (UniProt Q9H3N8). The experiment in a line: Displacement of [3H]histamine from human H4 receptor expressed in monkey COS7 cells at 10 uM. As to conditions: COS-7. The format is cell-based.
Assay [5] concerns the target Histamine H2 receptor (Homo sapiens) (UniProt P25021). The experiment in a line: Displacement of [3H]tiotidine from human H2 receptor expressed in monkey COS7 cells at 1 uM. The format is cell-based. As to conditions: COS-7.
The target of assay [6] is Histamine H1 receptor (Homo sapiens) (UniProt P35367). As to the kind of experiment: Displacement of [3H]pyrilamine from human H1 receptor expressed in monkey COS7 cells at 1 uM. The format is cell-based. As to conditions: COS-7.
Assay [7] concerns the target Histamine H2 receptor (Homo sapiens) (UniProt P25021). As to the kind of experiment: Displacement of [3H]tiotidine from human H2 receptor expressed in monkey COS7 cells at 10 uM. The format is cell-based. As to conditions: COS-7.
Assay [8] has as its target T2, Histamine H3 receptor (Rattus norvegicus, UniProt Q9QYN8). As to the kind of experiment: Displacement of [3H]N-alpha-methylhistamine from histamine H3 receptor in rat striatal membrane. The format is cell membranes, Striatum.
The target in assay [9] is T2, Histamine H3 receptor. The experiment in a line: Antagonist activity at histamine H3 receptor in rat forebrain assessed as inhibition of [3H]histamine release from synaptosomes. The format is functional, subcellular, Brain.
Assay [10] addresses Histamine H3 receptor (Rattus norvegicus) (UniProt Q9QYN8). As to the kind of experiment: Displacement of [3H]N-alpha-methylhistamine from histamine H3 receptor in rat striatal membrane at 1 uM. The conditions noted are these: Striatum. The format is cell membranes.
The target in assay [11] is T1, Histamine H3 receptor. The experiment in a line: Displacement of [3H]N-alpha-methylhistamine from human cloned histamine H3 receptor expressed in monkey COS7 cells at 1 uM. As to conditions: COS-7. The format is cell-based.
Assay [12] addresses T1, Histamine H3 receptor. As to the kind of experiment: Displacement of [3H]N-alpha-methylhistamine from human cloned histamine H3 receptor expressed in monkey COS7 cells at 0.1 uM. The format is cell-based. As to conditions: COS-7.
Assay [13] addresses Histamine H3 receptor (Rattus norvegicus) (UniProt Q9QYN8). The experiment in a line: Displacement of [3H]N-alpha-methylhistamine from histamine H3 receptor in rat striatal membrane at 0.1 uM. The format is cell membranes. The conditions noted are these: Striatum.

Histamine H4 receptor (Homo sapiens), sequence (Q9H3N8 whole entry): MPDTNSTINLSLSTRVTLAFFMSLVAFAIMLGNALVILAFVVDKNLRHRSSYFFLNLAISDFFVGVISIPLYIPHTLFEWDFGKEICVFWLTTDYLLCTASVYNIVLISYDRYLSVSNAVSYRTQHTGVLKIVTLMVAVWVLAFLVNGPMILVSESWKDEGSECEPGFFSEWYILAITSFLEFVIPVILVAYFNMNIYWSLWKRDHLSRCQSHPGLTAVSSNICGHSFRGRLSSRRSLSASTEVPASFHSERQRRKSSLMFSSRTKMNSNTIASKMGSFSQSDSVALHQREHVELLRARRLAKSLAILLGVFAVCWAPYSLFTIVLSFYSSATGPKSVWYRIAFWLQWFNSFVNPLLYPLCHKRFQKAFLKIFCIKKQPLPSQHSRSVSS
T1 sequence (Q9Y5N1 whole entry): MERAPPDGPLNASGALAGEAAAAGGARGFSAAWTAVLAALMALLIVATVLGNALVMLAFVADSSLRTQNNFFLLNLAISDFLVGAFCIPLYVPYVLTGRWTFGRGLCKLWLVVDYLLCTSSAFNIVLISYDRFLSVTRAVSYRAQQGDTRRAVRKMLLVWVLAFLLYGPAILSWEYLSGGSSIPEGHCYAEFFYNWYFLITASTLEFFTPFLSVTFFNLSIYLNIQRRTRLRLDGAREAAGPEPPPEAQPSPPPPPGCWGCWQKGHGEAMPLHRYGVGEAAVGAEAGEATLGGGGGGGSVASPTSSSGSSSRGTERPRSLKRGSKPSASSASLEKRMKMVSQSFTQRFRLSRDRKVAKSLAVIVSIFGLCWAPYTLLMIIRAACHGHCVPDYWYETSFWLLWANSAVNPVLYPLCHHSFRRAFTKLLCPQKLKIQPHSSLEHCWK
Histamine H2 receptor (Homo sapiens), sequence (P25021 whole entry): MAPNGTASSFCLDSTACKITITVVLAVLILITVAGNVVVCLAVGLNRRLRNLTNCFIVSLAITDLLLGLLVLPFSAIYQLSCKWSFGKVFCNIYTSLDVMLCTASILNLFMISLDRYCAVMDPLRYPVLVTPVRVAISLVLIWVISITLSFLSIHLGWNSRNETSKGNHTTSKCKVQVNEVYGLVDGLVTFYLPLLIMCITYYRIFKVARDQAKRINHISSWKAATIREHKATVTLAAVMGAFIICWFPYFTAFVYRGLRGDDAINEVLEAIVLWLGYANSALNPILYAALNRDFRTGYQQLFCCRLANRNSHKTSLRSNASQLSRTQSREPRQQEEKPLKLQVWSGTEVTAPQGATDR
Histamine H1 receptor (Homo sapiens), sequence (P35367 whole entry): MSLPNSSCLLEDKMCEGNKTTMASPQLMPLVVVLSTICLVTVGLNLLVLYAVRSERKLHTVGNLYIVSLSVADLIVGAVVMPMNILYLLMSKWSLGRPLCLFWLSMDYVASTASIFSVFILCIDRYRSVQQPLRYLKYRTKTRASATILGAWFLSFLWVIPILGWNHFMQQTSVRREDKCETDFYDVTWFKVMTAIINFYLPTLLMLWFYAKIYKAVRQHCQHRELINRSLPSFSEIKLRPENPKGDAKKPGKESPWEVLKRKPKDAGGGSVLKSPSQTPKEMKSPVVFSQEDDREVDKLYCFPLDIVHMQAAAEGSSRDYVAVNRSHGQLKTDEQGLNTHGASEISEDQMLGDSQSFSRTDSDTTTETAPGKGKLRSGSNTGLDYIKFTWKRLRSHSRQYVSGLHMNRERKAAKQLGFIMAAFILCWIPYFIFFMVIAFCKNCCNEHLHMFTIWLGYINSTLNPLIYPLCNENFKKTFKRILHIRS
Histamine H3 receptor (Rattus norvegicus), sequence (Q9QYN8 whole entry): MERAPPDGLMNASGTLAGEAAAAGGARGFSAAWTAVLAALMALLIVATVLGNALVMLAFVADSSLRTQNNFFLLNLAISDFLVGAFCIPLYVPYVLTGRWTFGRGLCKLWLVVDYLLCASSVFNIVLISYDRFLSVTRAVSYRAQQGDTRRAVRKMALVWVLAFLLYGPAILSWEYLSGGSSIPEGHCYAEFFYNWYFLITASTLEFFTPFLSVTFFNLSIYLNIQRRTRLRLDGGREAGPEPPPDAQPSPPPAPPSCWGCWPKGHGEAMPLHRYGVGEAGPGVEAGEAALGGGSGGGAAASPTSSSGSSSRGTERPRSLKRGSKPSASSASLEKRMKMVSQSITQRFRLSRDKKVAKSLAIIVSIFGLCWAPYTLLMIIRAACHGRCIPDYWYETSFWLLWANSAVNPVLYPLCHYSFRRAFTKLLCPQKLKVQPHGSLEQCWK
T2 sequence (Q9QYN8 whole entry): as above

Broadly, the inhibition is the change of the read-out against control, counted positive when it falls. Broadly, the Ki is the dissociation constant of the complex between target and ligand, obtained from inhibition or displacement. Turning to `C[C@@H]1CCCN1CCN1CCN(CCN2CCC[C@H]2C)C1=C(C#N)C#N`, the inhibition in assay [1] is -4%; in [2], 9%; in [4], 8%; in [5], -7%; in assay [6] it was 0%; in assay [7], -1%. Further, the Ki was 1.3 nM in assay [3] and 1.1 nM in assay [8].

As to `CCN(CCCN(C)C)CCN1CCN(Cc2cccc3ccccc23)C1=C(C#N)C#N`, the values for the Ki in assay [3] and in assay [8] were 83 nM and 75 nM, respectively.

On to `N#CC(C#N)=C1N(CCCN2CCCCC2)CCN1Cc1cccc2ccccc12`, for which the Ki in [3] turned out to be 36 nM; in assay [8], 690 nM.

Usually IC50 stands for the midpoint of a concentration-inhibition curve. In the case of `CC1CCCN1CCN1CCN(CCN2CCCC2C)C1=C(C#N)C#N` (racemic), the inhibition in [1] was 21%; in assay [2], -8%; in assay [4] it was -7%; in assay [5] it was 1%; in assay [6], 10%; in assay [7], 0%. Also, the Ki came to 0.33 nM in [3] and 0.68 nM in assay [8]. For the same compound, the IC50 in [9] was determined as 4.9 nM.

Take `N#CC(C#N)=C1N(CCN2CCCCC2)CCN1CCN1CCOCC1`: the inhibition in assay [10] worked out at 82%; in assay [11] it was 69%; in assay [12], 37%; in assay [13], 44%.

`N#CC(C#N)=C1N(CCN2CCCCC2)CCN1CCN1CCC(O)C1` (racemic): the inhibition worked out at 86% in assay [10], 70% in assay [11], 49% in assay [12] and 57% in [13].

Take `C[C@H]1CCCN1CCN1CCN(CCN2CCC[C@@H]2C)C1=C(C#N)C#N`: the inhibition in [1] was 14%; in assay [2], 9%; in assay [4], 0%; in [5] it was 2%; in assay [6] it was 8%; in assay [7], -2%. The Ki is 0.34 nM in assay [3] and 0.48 nM in [8]. The IC50 in assay [9] is 1.9 nM.

As for `N#CC(C#N)=C1N(CCCN2CCCCC2)CCN1CCCN1CCCCC1`, the inhibition in [1] was 21%; in [2] it was 11%; in [4], -1%; in assay [5] it was -5%; in [6], 3%; in [7] it was -4%. Further, the Ki in assay [3] came to 2.4 nM; in [8], 2.6 nM. For the same compound, the IC50 in assay [9] was 28 nM.

As for `N#CC(C#N)=C1N(CCN2CCCCC2)CCN1CCN1CCCCC1`, the Ki is 24 nM in assay [3] and 55 nM in assay [8].

As to `CN1CCN(CCN2CCN(CCN3CCCCC3)C2=C(C#N)C#N)CC1`, the inhibition came out at 82% in assay [10], 74% in assay [11], 37% in [12] and 43% in [13].

On to `c1cc(OCCCN2CCCCC2)ccc1CN1CCCCC1` [JNJ-5207852], for which the Ki in assay [8] came to 1.26 nM.

Consider `N#CC(C#N)=C1N(CCCCN2CCCCC2)CCN1CCCCN1CCCCC1`, for which the inhibition turned out to be 85% in [10], 68% in assay [11], 43% in assay [12] and 51% in [13].

With `N#CC(C#N)=C1N(CCCN2CCCCC2)CCN1CCN1CCCCC1`, the Ki stood at 6.6 nM in assay [3] and 6.3 nM in [8].

Turning to `N#CC(C#N)=C1N(CCCCN2CCCCC2)CCN1CCN1CCCCC1`, the inhibitory constant (Ki) in [3] turned out to be 16 nM; in assay [8] it was 8.6 nM.

With `N#CC(C#N)=C1N(CCCCN2CCCCC2)CCN1CCCN1CCCCC1`, the inhibition in assay [10] is 88%; in [11], 74%; in [12] it was 48%; in assay [13], 65%.

`C[C@@H]1CCCN1CCN1CCN(CCN2CCC[C@@H]2C)C1=C(C#N)C#N`: the inhibition in assay [1] is 7%; in assay [2], 6%; in assay [4], -3%; in assay [6], -3%; in assay [7], -9%. Moreover, the figures for the Ki in assay [3] and in assay [8] were 0.47 nM and 0.77 nM, respectively.

Consider `CC1CCCN1CCN1CCN(CCN2CCCCC2)C1=C(C#N)C#N` (racemic), for which the inhibition in assay [1] is 9%; in [2], 2%; in assay [4], 6%; in assay [5], -8%; in assay [6] it was 5%; in assay [7], -4%. The figures for the Ki in assay [3] and in [8] were 0.38 nM and 0.69 nM, respectively.

Source of the values: ChEMBL document CHEMBL1141546, “Diamine derivatives containing imidazolidinylidene propanedinitrile as a new class of histamine H3 receptor antagonists. Part I” (Bioorg Med Chem Lett, 2008).
